# Measurements from patent US6337338B1, “Heteroaryl-aryl ureas as IGF-1 receptor antagonists” (Telik, Inc., priority 1998, dated 2002).
# What was measured:
# [1] = molecular target: T1, IGF-1R-cytoplasmic kinase domain (IGF-1R-CKD; amino acids 959-1367 of IGF-1R) (Homo sapiens, UniProt P08069); assay: IGF-1R substrate assay (KS2 phosphorylation); assay type: biochemical; details: compounds 50 μM; 50 μM ATP; KS2-biotin substrate
# T1 construct: amino acids 959-1367 of IGF-1R
# Protocol: Nunc Maxisorp plates were coated with 100 μL 10 μg/mL-streptavidin at […] The plates were washed in 20 mM Tris pH7.6, 150 mM NaCl, 0.05% Tween 20, 0.8 mM Na3VO4, and 0.04% Biocide between all steps of the assay. The plates were blocked in 200 μL 50 mM Hepes/150 mM NaCl/0.1% Triton-X 100 overnight at 4° C. or for 2 hr at 25-37° C.
# Aliquots of the IGF-1R-cytoplasmic kinase domain (IGF-1R-CKD; amino acids 959-1367 of IGF-1R) were purified and stored at −80° C. until use. KS2 (GPWLEEEEEAYGWMDF; SEQ ID NO:1), gastrin (1-17) that is a substrate for many tyrosine kinases including the insulin receptor, was synthesized as a biotin conjugate (KS2-biotin) (Baldwin et al., Nature, 301:435-37 (1983)). The assay mixture consisted of 0.2 μg/mL IGF-1R-CKD (concentration adjusted for optimal response), 300-900 nM KS2-biotin (depending on optimal response), 2 mM […], 5 mM MgCl2 (4-10 mM […] can be substituted), compounds to be tested (50 μM) or their vehicle, and 50 μM ATP. The start of phosphorylation begins with the addition of ATP. Incubation was continued for 10-30 minutes, at which time, the reaction was stopped through the quenching the metals with 20 mM EDTA (final concentration).
# The reaction was diluted 1:10 in buffer A (2 mM HEPES pH 7.6, 0.05% Triton X-100, 0.05% bovine serum albumin (BSA)) and 100 μL was captured onto washed, coated and blocked, streptavidin Nunc Maxisorp plate, overnight at 4° C. or 2 hr at 37° C. Anti-phosphotyrosine antibody (12.5 ng/well) conjugated to horseradish peroxidase (RC20:HRPO by Transduction Laboratories ) was diluted into 0.5X Buffer B (25 mM Hepes pH7.6, 75 mM NaCl, 0.025% Tween 20, 2 mM Na3VO4+1% BSA) and incubated for 1.5 to 2 hr at 25° C. The phosphorylated substrate was measured by developing the plate with 100 μL 3′, 3′, 5,5′ tetramethylbenzidine (TMB), and quantified using a plate reader.
# [2] = test system: MCF-7 or MCF-10 cells; assay: Cell proliferation assay (CellTiter 96, MTS); assay type: cell-based; details: 1 nM IGF-1, 48 h, FIG. 2
# Protocol: 5000 cells (MCF-7 or MCF-10) were plated into 96 well plates and grown for 24 h as in Example 4, above. Cells were washed in serum free DMEM, then 100 μl media and 1 nM IGF-1 were added to wells in the presence of or absence of compound 5 (see Example 2) and hormone. After 48 h, viability was determined by CellTiter 96™ (Promega). This kit is a chromogenic bioassay procedure for the measurement of cell proliferation. Briefly, 20 μl (3-[4,5,dimethylthiazol-2-yl]-5-[3-carboxymethoxyphenyl]-2-[4-sulfophenyl]-2H-tetrazolium, inner salt (MTS) was added to each well and incubation was continued for 3-4 h. Viable cells reduced the MTS to formazan, which was then measured at 492 nm using an ELISA plate reader. Cell proliferation was calculated based on the increase in the number of viable cells.
# [3] = test system: MCF-10 cells; assay: Cell growth inhibition study by protein assay, MCF-10; assay type: cell-based; details: 1 nM IGF-I, FIG. 1a
# Protocol: MFC-10 cells were plated as above in DMEM/Ham's F12 medium (DMEM/F12) supplemented with 5% horse serum, 8 ng/ml epidermal growth factor (EGF), 0.5 μg/ml hydrocortisone, 0.1 μg/mL cholera toxin. After 24 hr, cells were washed twice in serum free DMEM/F12, then 0.5 ml DMEM/12 with 0.5% horse serum added with or without test compound, and in the […] of 1 nM IGF-I.
# [4] = test system: MCF-7 cells; assay: Cell growth inhibition study by protein assay, MCF-7; assay type: cell-based; details: 1 nM IGF-1, 48 h, FIG. 1b
# Protocol: 100,000 cells (MCF-7) were plated into 24 well dishes, and grown in complete Dulbecco's modified Eagle's medium (DMEM) supplemented with 10% fetal calf serum (FCS) for 24 h. Cells were washed twice in serum-free DMEM, then 0.5 ml DMEM supplemented with 0^5% FCS […] was added with or without a heteroaryl-aryl compound, compound 5, and in the presence or absence of 1 nM hormone (IGF-1 or insulin, respectively). After 48 h at 37° C., cells were washed twice with phosphate buffered saline (PBS) then solubilized in 0.03% sodium dodecyl sulfate (SDS). Protein was determined using the BCA Protein Assay reagent from Pierce Chemical with BSA serving as a standard.
# T1 sequence (P08069 959-1367): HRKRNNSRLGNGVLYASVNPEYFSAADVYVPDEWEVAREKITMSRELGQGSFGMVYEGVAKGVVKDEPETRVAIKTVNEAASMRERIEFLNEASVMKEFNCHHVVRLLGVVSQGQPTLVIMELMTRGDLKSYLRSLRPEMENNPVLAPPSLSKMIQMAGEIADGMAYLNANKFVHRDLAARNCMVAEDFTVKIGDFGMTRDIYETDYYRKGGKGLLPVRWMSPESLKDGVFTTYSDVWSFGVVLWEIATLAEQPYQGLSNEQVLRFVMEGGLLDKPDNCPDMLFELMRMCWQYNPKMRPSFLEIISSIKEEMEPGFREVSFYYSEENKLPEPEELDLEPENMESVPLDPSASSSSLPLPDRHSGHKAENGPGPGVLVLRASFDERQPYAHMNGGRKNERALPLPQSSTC
Structure (SMILES),inhibition at 50 µM [1] [%],other results
"CCc1ccc(NC(=O)Nc2cccc3cccnc23)cc1 [Compound 9, N-(4-ethylphenyl)-N′-(8-quinolinyl) urea]",33,–
"COc1c(Cl)cccc1NC(=O)Nc1nccs1 [Compound 11, N-(2-methoxy-3-chlorophenyl)-N′-(1,3-thiazol-2-yl) urea]",21,–
"COc1c(Cl)cccc1NC(=O)Nc1cc(C)nc2ccccc12 [Compound 5, N-(2-methoxy-3-chlorophenyl)-N′-(2-methyl-4-quinolinyl) urea]",21,IGF-1R stimulated cell proliferation [2]: decrease in IGF-1R stimulated cell proliferation; IGF-1 stimulated cell growth (protein assay) [3]: inhibit IGF-1 stimulated cell growth; IGF-1 stimulated cell growth (protein assay) [4]: inhibit IGF-1 stimulated cell growth
"COc1ccc(Cl)cc1NC(=O)Nc1cc(C)nc2ccccc12 [Compound 7, N-(2-methoxy-5-chlorophenyl)-N′-(2-methyl-4-quinolinyl) urea]",23,–
"O=C(Nc1cccc(Cl)c1)Nc1cnc2ccccc2c1 [Compound 10, N-(3-chlorophenyl)-N′-(3-quinolinyl) urea]",26,–
"Cc1ccc(NC(=O)Nc2cnc3ccccc3c2)cc1Cl [Compound 8, N-(3-chloro-4-methylphenyl)-N′-(3-quinolinyl) urea]",65,–
"O=C(Nc1cc(Cl)cc(Cl)c1)Nc1nccs1 [Compound 14, N-(3,5-dichlorophenyl)-N′-(1,3-thiazol-2-yl) urea]",17,–
"Cc1ccc(NC(=O)Nc2nccs2)cc1Cl [Compound 12, N-(3-chloro-4-methylphenyl)-N′-(1,3-thiazol-2-yl) urea]",21,–
"COc1ccccc1NC(=O)Nc1nccs1 [Compound 13, N-(2-methoxyphenyl)-N′-(1,3-thiazol-2-yl) urea]",20,–
